ChEMBL document CHEMBL1136544, “3-(2-carboxyethyl)-4,6-dichloro-1H-indole-2-carboxylic acid: an allosteric inhibitor of fructose-1,6-bisphosphatase at the AMP site” (Bioorg Med Chem Lett, 2003)

Molecular target: not listed separately
Assay: Inhibitory activity against Fructose-1,6-bisphosphatase (F16BPase) in human liver
Format: tissue-based

Row | SMILES | IC50
1 | COC(=O)CCc1c(C(=O)O)[nH]c2cc(Cl)cc(Cl)c12 | 7 µM
2 | CCOC(=O)c1[nH]c2cc(Cl)cc(Cl)c2c1CCC(=O)O | > 10 µM
3 | O=C(O)CCc1c(C(=O)NO)[nH]c2cc(Cl)cc(Cl)c12 | > 10 µM
4 | O=C(O)CCc1c(CO)[nH]c2cc(Cl)cc(Cl)c12 | > 10 µM
5 | Cn1c(C(=O)O)c(CCC(=O)O)c2c(Cl)cc(Cl)cc21 | > 10 µM
6 | CN(C)C(=O)c1[nH]c2cc(Cl)cc(Cl)c2c1CCC(=O)O | > 10 µM
7 | NC(=O)c1[nH]c2cc(Cl)cc(Cl)c2c1CCC(=O)O | > 10 µM
8 | O=C(O)c1[nH]c2cc(Cl)cc(Cl)c2c1CCCO | 2.7 µM

The next lines start with the values.

Row | IC50 | SMILES
9 | 1.2 µM | O=C(O)CCCCc1c(C(=O)O)[nH]c2cc(Cl)cc(Cl)c12
10 | 1 µM | O=C(O)CCCc1c(C(=O)O)[nH]c2cc(Cl)cc(Cl)c12
11 | 2.5 µM | O=C(O)Cc1c(C(=O)O)[nH]c2cc(Cl)cc(Cl)c12
12 | 1.5 µM | O=C(CCc1c(C(=O)O)[nH]c2cc(Cl)cc(Cl)c12)NO
13 | 1.7 µM | CN(C)C(=O)CCc1c(C(=O)O)[nH]c2cc(Cl)cc(Cl)c12
14 | 2.2 µM | NC(=O)CCc1c(C(=O)O)[nH]c2cc(Cl)cc(Cl)c12

Molecular target: T1, Fructose-1,6-bisphosphatase 1 (Sus scrofa, UniProt P00636)
T1 sequence (P00636 whole entry): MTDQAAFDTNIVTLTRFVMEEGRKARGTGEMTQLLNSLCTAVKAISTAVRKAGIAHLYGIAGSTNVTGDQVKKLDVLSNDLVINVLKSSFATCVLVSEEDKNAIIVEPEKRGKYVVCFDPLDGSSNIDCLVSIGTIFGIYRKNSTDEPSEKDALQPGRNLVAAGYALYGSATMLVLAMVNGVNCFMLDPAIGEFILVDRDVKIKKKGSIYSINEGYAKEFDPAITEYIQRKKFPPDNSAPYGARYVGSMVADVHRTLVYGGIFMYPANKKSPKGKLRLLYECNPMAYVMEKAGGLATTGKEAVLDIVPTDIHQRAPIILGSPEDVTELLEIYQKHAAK
Assay: Inhibitory activity against Fructose-1,6-bisphosphatase (F16BPase) in porcine kidney
Format: tissue-based

Row | IC50 | SMILES
15 | 1 µM | O=C(O)CCc1c(C(=O)O)[nH]c2cc(Cl)cc(Cl)c12

Molecular target: not listed separately
Assay: Inhibitory activity against Fructose-1,6-bisphosphatase (F16BPase) in rat liver
Format: tissue-based

Row | IC50 | SMILES
16 | 11 µM | O=C(O)CCc1c(C(=O)O)[nH]c2cc(Cl)cc(Cl)c12

Molecular target: not listed separately
Assay: Inhibitory activity against Fructose-1,6-bisphosphatase (F16BPase) in rabbit liver
Format: tissue-based, Oryctolagus cuniculus

Row | IC50 | SMILES
17 | 0.21 µM | O=C(O)CCc1c(C(=O)O)[nH]c2cc(Cl)cc(Cl)c12
